Measured values: patent US20260263417A1, “STRUCTURE-BASED OPTIMIZATION OF S6K2 INHIBITOR CD02 TO TARGET MELANOMA” (THE WISTAR INSTITUTE OF ANATOMY AND BIOLOGY, priority 2023, published 2026)
Residues, ends and D or L forms follow the SMILES beside them. *: point of attachment. Cbz = O=C(OCc1ccccc1)*; CH2F = FC*

Assays:
[1] = tested on: MAPKi-R NRAS-mutant melanoma cells; assay type: cell-based; conditions: for effect on FNB/DHA-induced cell death: M93-047, GSH 2 mM, zVAD 20 μM, Kira6 0.2 μM pre-treatment; for effect on cell death induced by S6K2 depletion (S6K2 shRNA): M93-047 cells transduced with S6K2 shRNA; for effect on S6K2i (CD02)-induced cell death: MAPKi-R cells treated with CD02
Method: Floating and attached cells were harvested, washed and stained with PSVue 643/PI or Annexin V-FITC/PI. Annexin V staining was performed as described previously (45), with 15 min Annexin V incubation. For PSVue/PI staining, cells were incubated in 3 μM PSVue 643/TES for 10 min at RT, washed in TES buffer and resuspended in PI (5 μg/mL)/TES for 15 min at RT. Cell death (Annexin V^+/PSVue^+ or PI^+) was quantified by FACS (LSRII 18 color analyzer, BD Biosciences) and analyzed using FlowJo software v.10.7.2.

[2] = tested on: pS6 (S240/244) in MAPKi-R cells; assay: Phosphorylation of S6K/S6 in MAPKi-R cells (immunoblotting, RPPA, flow cytometry); assay type: cell-based, human
Method: (§1) Cells were lysed with RIPA buffer (50 mM Tris-HCl, pH 7.4, 150 mM NaCl, 1% NP-40, 0.5% sodium deoxycholate, 1 mM EDTA, 2.5 mM sodium pyrophosphate, 0.05% or 0.1% SDS) supplemented with sodium vanadate (0.2 mM) and protease inhibitor cocktail (Sigma-Aldrich #11697498001). Immunoblotting was performed as previously described (Echevarria-Vargas et al., 2018). Immunoblots were imaged with an Odyssey Infrared Imaging System (LI-COR Biosciences).
(§2) Flow cytometry. Cells were fixed in 90% ice cold EtOH/PBS and stored at −20° C. Cells were washed twice with PBS followed by 1 h incubation at RT with incubation buffer (1% BSA/PBS) containing primary antibodies (1:500 pS6 S240/244 Cell Signaling Technology #5364; 1:1000 HA Sigma-Aldrich #H9658). Samples were washed once (1×PBS), incubated for 30 min at RT with incubation buffer containing secondary antibodies diluted to 1:500 (goat anti-mouse Alexa Fluor 488 ThermoFisher #A11029; goat anti-rabbit Alexa Fluor 647 #A21244), washed (1×PBS) and resuspended in incubation buffer for analysis by flow cytometry (BD LSRII 14-color flow cytometer analyser; Alexa Fluor 488 and APC filter sets). Data analyses were performed using FlowJo software to calculate pS6 positivity. For 4-HNE staining, cells were fixed with 4% paraformaldehyde for 15 min, washed with PBS and stored at 4° C. […]

[3] = tested on: pS6 (S240/244) in MAPKi-S cells; assay: Phosphorylation of S6K/S6 in MAPKi-S cells (immunoblotting, RPPA, flow cytometry); assay type: cell-based, human
Method: as §1, §2

[4] = tested on: spliced XBP-1 and PPARα in M93-047 cells; assay: Spliced XBP-1 and PPARα levels by qRT-PCR / Western blotting; assay type: cell-based, human
Method: as §1
Cell pellets were homogenized using QIAshredder (QIagen #79656) and RNA extracted with PureLink RNA mini kit (Thermo Fisher Scientific, #12183018A). DNA was removed by on-column PureLink DNase treatment (Thermo Fisher Scientific, #12185010). First-strand cDNA was synthesized using Maxima cDNA kit (Thermo Scientific™ #K1642). Real time qPCR was performed using SYBR green PCR Master Mix (Applied Biosystems #4385612). Tumor samples for qRT-PCR were preserved in RNAlater solution (Invitrogen #AM7020).

[5] = tested on: M93047 and WM3623 cell lines; assay: Preliminary in vitro studies against MAPKi-R cell lines; assay type: cell-based, human; conditions: at lower concentrations

## N[C@@H](CCC(=O)N[C@@H](CS)C(=O)NCC(=O)O)C(=O)O [GSH, glutathione]
[1]
  effect on FNB/DHA-induced cell death: attenuated FNB/DHA-induced cell death
  effect on cell death induced by S6K2 depletion (S6K2 shRNA): also attenuated cell death
  effect on S6K2i (CD02)-induced cell death: attenuate S6K2i-induced cell death

## COc1ncc(-c2ccc3nccc(-c4ccnnc4)c3c2)cc1NS(=O)(=O)c1ccc(F)cc1F [GSK458, GSK2126458]
[2]
  phosphorylation of S6K / S6: effectively suppressed pS6
[3]
  phosphorylation of S6K / S6: decreased phosphorylation of S6

## CC(C)(C)c1nc(-c2ccc(NC(=O)Nc3cccc(C(F)(F)F)c3)c3ccccc23)c2c(N)nccn12 [Kira6]
[1]
  effect on FNB/DHA-induced cell death: attenuated FNB/DHA-induced cell death
  effect on cell death induced by S6K2 depletion (S6K2 shRNA): partially attenuated cell death
  effect on S6K2i (CD02)-induced cell death: attenuate S6K2i-induced cell death
[4]; M93-047, S6K2 shRNA
  upregulation of XBP-1 splicing and PPARα expression caused by S6K2 knockdown: suppressed
[4]; cotreatment with 0.2 μM Kira6
  activation of XBP-1 by FNB/DHA: suppressed the activation of XBP-1

## Cn1cc(-c2ccc(F)c(C(F)(F)F)c2)nc1C1CCN(c2ncnc3[nH]ncc23)CC1 [LY2584702]
[1]; M93-047 with S6K1^T389E, 1, 5, 10 μM, 48 hours
  cytotoxicity with ectopically expressed activated S6K1: enhanced LY4702 cytotoxicity

## O=C(CCl)Nc1ccc(-c2cc(O)cc3sc(=O)oc23)cc1 [MM-113]
[5]
  potency compared with RT12: better potency at lower concentrations

## CC(=O)N[C@@H](CS)C(=O)O [NAC]
[1]
  effect on cell death induced by S6K2 depletion (S6K2 shRNA): protects M93047 cells from S6K2sh induced cell death
  effect on S6K2i (CD02)-induced cell death: rescues S6K2i-induced cell death

## O=C(Nc1ccc2[nH]nc(-c3ccncc3)c2c1)[C@@H]1CCN(CC(=O)N2CCN(c3ccc(-c4ncccn4)cc3)CC2)C1 [SCH984, SCH772984]
[2]
  phosphorylation of S6K / S6: no effect on phosphorylation of S6
[3]
  phosphorylation of S6K / S6: decreased phosphorylation of S6

## CCOC(=O)c1ccc(NC2CCCCC2)c(N)c1 [ferrostatin-1]
[1]
  effect on cell death induced by S6K2 depletion (S6K2 shRNA): did not attenuate cell death

## COC(=O)C[C@H](NC(=O)[C@H](C)NC(=O)[C@@H](NC(=O)OCc1ccccc1)C(C)C)C(=O)CF [zVAD, zVAD(OMe)-FMK] (Cbz-Val-Ala-Asp(OMe)-CH2F)
[1]
  effect on FNB/DHA-induced cell death: attenuated FNB/DHA-induced cell death
  effect on cell death induced by S6K2 depletion (S6K2 shRNA): also attenuated cell death
  effect on S6K2i (CD02)-induced cell death: attenuate S6K2i-induced cell death
